Experiments:
[1] = target: T1, isolated guinea pig pulmonary artery (Cavia porcellus, UniProt O70526); test: duration of action (T50) on the isolated pulmonary artery after replacement of the peptide-containing buffer; type: cell-based; settings: time until strips again reach maximum sensitivity to 2×10^-7 mol/l bradykinin after washout; measure of duration of action; found by calculation
T1 sequence (O70526 1-372): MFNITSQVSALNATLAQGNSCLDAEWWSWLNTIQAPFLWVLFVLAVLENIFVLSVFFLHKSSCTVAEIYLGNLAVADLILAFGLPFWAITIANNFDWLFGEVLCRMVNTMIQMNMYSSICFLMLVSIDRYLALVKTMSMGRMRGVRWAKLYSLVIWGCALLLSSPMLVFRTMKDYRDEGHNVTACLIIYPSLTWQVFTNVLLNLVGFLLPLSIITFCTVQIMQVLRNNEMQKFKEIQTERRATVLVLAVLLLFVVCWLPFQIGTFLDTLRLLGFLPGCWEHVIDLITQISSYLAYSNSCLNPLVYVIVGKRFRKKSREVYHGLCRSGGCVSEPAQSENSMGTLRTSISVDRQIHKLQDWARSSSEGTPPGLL
Procedure: (§1) To test the peptides according to the invention on the isolated pulmonary artery, guinea pigs (Dunkin Hartley) weighing 400-450 g are sacrificed by a blow to the back of the neck. The thorax is opened and the pulmonary artery is carefully dissected out. The surrounding tissue is cautiously removed and the pulmonary artery is cut open in a spiral at an angle of 45°. The strip of vessel 2.5 cm long and 3-4 mm wide is fixed in an organ bath which has a capacity of 10 ml and is filled with Ringer solution.
(§2) 95% O2 and 5% CO2 is bubbled through the solution, which is heated to 37° C. The pH is 7.4 and the preload on the strip of vessel is 1.0 g.
(§3) The isometric contraction changes are detected using a lever attachment and an HF modem (position sensor) from Hugo Sachs and are recorded on a potentiometric recorder (BEC, Goerz Metrawatt SE 460).
The experiment is started after equilibration for 1 hour. […]
For some selected compounds, the time until the strips of vessel have again reached their maximum sensitivity to 2×10^-7 mol/l bradykinin after replacement of the peptide-containing by a "simple" buffer was also determined in the experimental arrangement described above. […]

[2] = tested on: carrageenan-induced edema of the rat paw; test: carrageenan-induced edema of the rat paw, systemic administration; type: in vivo; settings: 15 min before carrageenan, male Sprague-Dawley rats, mean and standard deviation
Procedure: Antiinflammatory effect after systemic administration: carrageenan-induced edema of the rat paw
The test chosen for the acute systemic antiinflammatory effect is the carrageenan-induced edema of the rat paw by the method described by Winter C. A. et al., Proc. Soc. Exp. Biol. (N.Y.), 111, 544 (1962). Male Sprague-Dawley rats weighing about 170 g in groups of 5 animals receive the substances to be tested subcutaneously dissolved in distilled water (1 ml/kg bodyweight). 15 min later, after measurement of the initial volume of the paw, 0.1 ml of 0.5% strength carrageenan solution is injected under ether anesthesia into the left rear paw. The increase in volume of the swelling is measured 3 and 6 h later, Controls receive only the vehicle. The paw volume is reported in ml (mean and standard deviation).

[3] = target: T1, isolated guinea pig pulmonary artery; test: bradykinin-antagonistic action on the isolated guinea pig pulmonary artery (inhibition of bradykinin-induced contraction); type: cell-based; settings: contraction by 2×10^-7 mol/l bradykinin; peptides 5×10^-8 -1×10^-5 mol/l for 10 minutes; calculated from dose-effect plots; unit inferred
Text: The peptides according to the invention have, singly or in combination, a bradykinin-antagonistic action which can be tested in various models (see Handbook of Exp. Pharmacol. Vol. 25, Springer Verlag, 1970, pages 53-55), for example on the isolated rat uterus, on the guinea pig ileum or on the isolated guinea pig pulmonary artery.
as §1, §2, §3
The experiment is started after equilibration for 1 hour. After the strips of vessel have reached their maximum sensitivity to 2×10^-7 mol/1 bradykinin--bradykinin leads to contraction of the strips of vessel--the peptides are left to act in doses of 5×10^-8 -1×10^-5 mol/l for 10 minutes each and, after renewed addition of bradykinin, the decrease in the effect of bradykinin is compared with the control.

Row | Substance | T50 (pulmonary artery) [1] | Increase in paw volume after 3 h ([2]; 0.1 mg/kg subcutaneously) | Increase in paw volume after 6 h ([2]; 0.1 mg/kg subcutaneously) | Increase in paw volume after 3 h ([2]; 1.0 mg/kg subcutaneously) | Increase in paw volume after 6 h ([2]; 1.0 mg/kg subcutaneously) | IC50 [3]
1 | Fmoc-Aoc-D-Arg-Arg-Pro-Hyp-Gly-Thia-Ser-D-Tic-Oic-Arg-OH [Example 2] | 253.3 min | 0.13 ± 0.04 mL | 0.29 ± 0.08 mL | 0.19 ± 0.06 mL | 0.27 ± 0.06 mL | 8.5 nM
2 | Fmoc-(4-aminocyclohexylcarbonyl)-D-Arg-Arg-Pro-Hyp-Gly-Thi-Ser-D-Tic-Oic-Arg-OH [Example 15] |  |  |  |  |  | 25 nM
3 | Fmoc-D-Aoc-Arg -Arg-Pro-Hyp-Gly-Thi-Ser-D-Tic-Oic-Arg-OH [Example 7] |  |  |  |  |  | 22 nM
